From patent US12612412B2, “Antiviral heterocyclic compounds” (Enanta Pharmaceuticals, Inc., priority 2021, dated 2026) come the findings set out here.

This test deals with genotype A, "Long" strain RSV. Briefly: RSV-A assay (CPE protection in Hep-2 cells, ATPlite readout). The class given is cell-based, Human respiratory syncytial virus (HRSV). The following applies: human respiratory syncytial virus, genotype A “Long” strain RSV, MOI 0.1, CPE protection, read-out: Human RSV-A (“Long”). In short, it runs like this:
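Hep-2 cells (8,000/well) were treated with 2-fold serial compound dilutions in duplicate and infected with RSV at MOI 0.1. After 5 days, protection from cytopathic effect was measured as cell viability by ATPlite luminescence, and EC50 values were derived.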
(In general: ATP-based viability assays read luminescence as a measure of living cells.)

Structures are written as SMILES. Some results are limits rather than exact numbers.

With `COc1cc(C(=O)NC[C@](O)(c2cc3c(c(-c4ccc(F)cc4)n2)OC[C@]3(CF)C(N)=O)C(F)(F)F)cc2cccnc12` [Example 283], the EC50 is less than 200 nM.
With `COc1cc(C(=O)NC[C@](O)(c2cc3c(c(-c4ccc(F)cc4)n2)OC[C@@]3(CF)C(N)=O)C(F)(F)F)cc2cc(Cl)c(C)nc12` [Example 284], the EC50 was less than 200 nM.
Turning to `COc1cc(C(=O)NC[C@](O)(c2cc3c(c(-c4ccc(F)cc4)n2)OC[C@]3(CF)C(N)=O)C(F)(F)F)cc2cc(Cl)c(C)nc12` [Example 285], the EC50 is less than 200 nM.
For `COc1cc(C(=O)NC[C@](O)(c2cc3c(c(-c4ccc(F)cc4)n2)OC[C@@]3(CF)C(N)=O)C(F)(F)F)cc2cc(C(F)(F)F)cnc12` [Example 286] the value was less than 200 nM; for `COc1cc(C(=O)NC[C@](O)(c2cc3c(c(-c4ccc(F)cc4)n2)OC[C@]3(CF)C(N)=O)C(F)(F)F)cc2cc(C(F)(F)F)cnc12` [Example 287], less than 200 nM.
Take `COc1cc(C(=O)NC[C@](O)(c2cc3c(c(-c4ccc(F)cc4)n2)OCC3(CF)C(N)=O)C(F)(F)F)cc2cn(C(F)F)nc12` (some centres unmarked) [Example 288]: the EC50 was less than 200 nM.
On to `NC(=O)[C@]1(CF)COc2c1cc([C@@](O)(CNC(=O)c1cc(F)c3nc(N)sc3c1)C(F)(F)F)nc2-c1ccc(F)cc1` [Example 289], for which the EC50 was more than 200 nM.
Regarding `NC(=O)[C@@]1(CF)COc2c1cc([C@@](O)(CNC(=O)c1cc(F)c3nc(N)sc3c1)C(F)(F)F)nc2-c1ccc(F)cc1` [Example 290], the EC50 was less than 200 nM.
The same measure for `COc1cc(C(=O)NC[C@](O)(c2cc3c(c(-c4ccc(F)cc4)n2)OC[C@@]3(CF)C(N)=O)C(F)(F)F)cn2cc(C3CC3)nc12` [Example 291]: more than 200 nM; for `COc1cc(C(=O)NC[C@](O)(c2cc3c(c(-c4ccc(F)cc4)n2)OC[C@]3(CF)C(N)=O)C(F)(F)F)cn2cc(C3CC3)nc12` [Example 292]: less than 200 nM; for `C[C@@H](O)COc1ccc(C(=O)NC[C@](O)(c2cc3c(c(-c4ccc(F)cc4)n2)OC[C@@]3(CF)C(N)=O)C(F)(F)F)cc1OC1CC1` [Example 293]: more than 200 nM.
As for `C[C@@H](O)COc1ccc(C(=O)NC[C@](O)(c2cc3c(c(-c4ccc(F)cc4)n2)OC[C@]3(CF)C(N)=O)C(F)(F)F)cc1OC1CC1` [Example 294], the EC50 is less than 200 nM.
On to `COc1cc(C(=O)NC[C@](O)(c2cc3c(c(-c4ccc(F)cc4)n2)OCC3(CF)C(N)=O)C(F)(F)F)cc2cn(C3CC3)nc12` (some centres unmarked) [Example 295], for which the EC50 is less than 200 nM.
For `NC(=O)[C@]1(CF)COc2c1cc([C@@](O)(CNC(=O)c1cc(OC3CC3)c3ncccc3c1)C(F)(F)F)nc2-c1ccc(F)cc1` [Example 296] the value was more than 200 nM; for `NC(=O)[C@@]1(CF)COc2c1cc([C@@](O)(CNC(=O)c1cc(OC3CC3)c3ncccc3c1)C(F)(F)F)nc2-c1ccc(F)cc1` [Example 297], less than 200 nM; for `COc1cc(C(=O)NC[C@](O)(c2cc3c(c(-c4ccc(F)cc4)n2)OC[C@@]3(CF)C(N)=O)C(F)(F)F)ccc1OC1CC1` [Example 298], more than 200 nM.
For the compound `COc1cc(C(=O)NC[C@](O)(c2cc3c(c(-c4ccc(F)cc4)n2)OC[C@]3(CF)C(N)=O)C(F)(F)F)ccc1OC1CC1` [Example 299], the EC50 was less than 200 nM.
Take `COc1cc(C(=O)NC[C@](O)(c2cc3c(c(-c4ccc(F)cc4)n2)OC[C@]3(C)C(N)=O)C2CC2)cc2cn(C3CC3)nc12` [Example 302]: the EC50 was less than 200 nM.
Turning to `COc1cc(C(=O)NC[C@](O)(c2cc3c(c(-c4ccc(F)cc4)n2)OC[C@]3(C)C(N)=O)C2CC2)cc2cn(C(F)F)nc12` [Example 303], the EC50 is less than 200 nM.
On to `CCS(=O)(=O)c1ccc(-c2nc([C@@](O)(CNC(=O)c3cc(F)c4nc(N)sc4c3)C(F)(F)F)cc3c2OC[C@]3(C)C(N)=O)cc1` [Example 311], for which the EC50 was more than 200 nM.
On to `COc1cc(C(=O)NC[C@](O)(c2cc3c(c(-c4ccc(F)cc4)n2)OC[C@]3(C)C(N)=O)C2CC2)ccc1OC1CC1` [Example 316], for which the EC50 is less than 200 nM.
For `C[C@@H](O)COc1ccc(C(=O)NC[C@](O)(c2cc3c(c(-c4ccc(F)cc4)n2)OC[C@]3(C)C(N)=O)C2CC2)cc1OC1CC1` [Example 317] the value was less than 200 nM; for `C[C@]1(C(N)=O)COc2c1cc([C@@](O)(CNC(=O)c1ccc3[nH]c(=O)oc3c1)C(F)(F)F)nc2-c1ccc(F)cc1` [Example 318], less than 200 nM.
With `COc1cc(C(=O)NC[C@](O)(c2cc3c(c(-c4ccc(F)cc4)n2)OC[C@]3(C)C(N)=O)C2CC2)cc2cc(Cl)c(C)nc12` [Example 319], the EC50 was less than 200 nM.
`COc1cc(C(=O)NC[C@](O)(c2cc3c(c(-c4ccc(F)cc4)n2)OC[C@]3(C)C(N)=O)C2CC2)cn2cc(C3CC3)nc12` [Example 320]: the EC50 is less than 200 nM.
As for `COc1cc2cc(C(=O)NC[C@](O)(c3cc4c(c(-c5ccc(F)cc5)n3)OC[C@]4(C)C(N)=O)C(F)(F)F)ccc2nc1Cl` [Example 325], the EC50 is less than 200 nM.
Consider `COc1cc2cc(C(=O)NC[C@](O)(c3cc4c(c(-c5ccc(F)cc5)n3)OC[C@]4(C)C(N)=O)C(F)(F)F)ccc2nc1C` [Example 326], for which the EC50 is less than 200 nM.
The same measure for `Cc1cnc2c(NC(=O)N(C)C3CC3)cc(C(=O)NC[C@](O)(c3cc4c(c(-c5ccc(F)cc5)n3)OC[C@]4(C)C(N)=O)C(F)(F)F)cc2c1` [Example 328]: less than 200 nM; for `[2H]C([2H])([2H])NC(=O)Nc1cc(C(=O)NC[C@](O)(c2cc3c(c(-c4ccc(F)cc4)n2)OC[C@]3(C)C(N)=O)C(F)(F)F)cc2ccc(C)nc12` [Example 330]: more than 200 nM; for `C[C@]1(C(N)=O)COc2c1cc([C@@](O)(CNC(=O)c1cc(OC3CC3)n3nc(C4CC4)cc3c1)C1CC1)nc2-c1ccc(F)cc1` [Example 331]: less than 200 nM.
Regarding `C[C@]1(C(N)=O)COc2c1cc([C@@](O)(CNC(=O)c1ccn3nc(C4CC4)cc3c1)C1CC1)nc2-c1ccc(F)cc1` [Example 332], the EC50 is less than 200 nM.
As to `C[C@]1(C(N)=O)COc2c1cc([C@@](O)(CNC(=O)c1cnc3[nH]ccc3c1Cl)C(F)(F)F)nc2-c1ccc(F)cc1` [Example 333], the EC50 is more than 200 nM.
On to `Cc1ncccc1C(=O)NC[C@](O)(c1cc2c(c(-c3ccc(F)cc3)n1)OC[C@]2(C)C(N)=O)C(F)(F)F` [Example 334], for which the EC50 was more than 200 nM.
With `C[C@]1(C(N)=O)COc2c1cc([C@@](O)(CNC(=O)c1nc3cccnc3s1)C(F)(F)F)nc2-c1ccc(F)cc1` [Example 335], the EC50 was more than 200 nM.
As to `COc1ccc2cc(C(=O)NC[C@](O)(c3cc4c(c(-c5ccc(F)cc5)n3)OC[C@]4(C)C(N)=O)C(F)(F)F)n(C)c2c1` [Example 336], the EC50 was more than 200 nM.
With `Cn1cc(C(=O)NC[C@](O)(c2cc3c(c(-c4ccc(F)cc4)n2)OC[C@]3(C)C(N)=O)C(F)(F)F)nn1` [Example 337], the EC50 is more than 200 nM.
As to `C[C@]1(C(N)=O)COc2c1cc([C@@](O)(CNC(=O)c1cc3ccc(C(F)(F)F)cc3[nH]1)C(F)(F)F)nc2-c1ccc(F)cc1` [Example 338], the EC50 was more than 200 nM.
For `CC(C)Oc1ccc2cc(C(=O)NC[C@](O)(c3cc4c(c(-c5ccc(F)cc5)n3)OC[C@]4(C)C(N)=O)C(F)(F)F)[nH]c2c1` [Example 339] the value was more than 200 nM.
With `COC(=O)Nc1cc(C(=O)NC[C@](O)(c2cc3c(c(-c4ccc(F)cc4)n2)OC[C@]3(C)C(N)=O)C(F)(F)F)ccc1F` [Example 340], the EC50 was less than 200 nM.
With `C[C@]1(C(N)=O)COc2c1cc([C@@](O)(CNC(=O)c1cc3c(cc1Cl)NC(=O)C3)C(F)(F)F)nc2-c1ccc(F)cc1` [Example 341], the EC50 was more than 200 nM.
Take `C[C@]1(C(N)=O)COc2c1cc([C@@](O)(CNC(=O)c1cnoc1C1CC1)C(F)(F)F)nc2-c1ccc(F)cc1` [Example 342]: the EC50 is more than 200 nM.
For `C[C@]1(C(N)=O)COc2c1cc([C@@](O)(CNC(=O)c1cnc3cc[nH]c3c1)C(F)(F)F)nc2-c1ccc(F)cc1` [Example 343] the value was more than 200 nM; for `Cc1cc(C(=O)NC[C@](O)(c2cc3c(c(-c4ccc(F)cc4)n2)OC[C@]3(C)C(N)=O)C(F)(F)F)ccn1` [Example 344], less than 200 nM; for `C[C@]1(C(N)=O)COc2c1cc([C@@](O)(CNC(=O)c1c[nH]c3cc(Cl)ccc13)C(F)(F)F)nc2-c1ccc(F)cc1` [Example 345], more than 200 nM.
With `C[C@]1(C(N)=O)COc2c1cc([C@@](O)(CNC(=O)c1ccc3ccsc3c1)C(F)(F)F)nc2-c1ccc(F)cc1` [Example 346], the EC50 was more than 200 nM.
For `C[C@]1(C(N)=O)COc2c1cc([C@@](O)(CNC(=O)c1c[nH]c3ncc(C(F)(F)F)cc13)C(F)(F)F)nc2-c1ccc(F)cc1` [Example 347], the EC50 was more than 200 nM.
On to `C[C@]1(C(N)=O)COc2c1cc([C@@](O)(CNC(=O)c1ccc(F)c3cc[nH]c13)C(F)(F)F)nc2-c1ccc(F)cc1` [Example 348], for which the EC50 was less than 200 nM.
With `C[C@]1(C(N)=O)COc2c1cc([C@@](O)(CNC(=O)c1cc[nH]c1)C(F)(F)F)nc2-c1ccc(F)cc1` [Example 349], the EC50 is more than 200 nM.
With `C[C@]1(C(N)=O)COc2c1cc([C@@](O)(CNC(=O)c1c[nH]c3c(Cl)cccc13)C(F)(F)F)nc2-c1ccc(F)cc1` [Example 350], the EC50 is more than 200 nM.
For the compound `C[C@]1(C(N)=O)COc2c1cc([C@@](O)(CNC(=O)c1c[nH]c3nccnc13)C(F)(F)F)nc2-c1ccc(F)cc1` [Example 351], the EC50 was more than 200 nM.
As for `C[C@]1(C(N)=O)COc2c1cc([C@@](O)(CNC(=O)c1c[nH]c3ccccc13)C(F)(F)F)nc2-c1ccc(F)cc1` [Example 352], the EC50 is more than 200 nM.
`C[C@]1(C(N)=O)COc2c1cc([C@@](O)(CNC(=O)c1c[nH]c3ncc(F)cc13)C(F)(F)F)nc2-c1ccc(F)cc1` [Example 353]: the EC50 is more than 200 nM.
In the case of `Cc1cc(C(=O)NC[C@](O)(c2cc3c(c(-c4ccc(F)cc4)n2)OC[C@]3(C)C(N)=O)C(F)(F)F)n[nH]1` [Example 355], the EC50 is more than 200 nM.
